Experimental data: patent US5244602A, “Photochromic naphthopyrans” (PPG Industries, Inc., priority 1990, dated 1993)

Assays:
Assay type in all cases: physicochemical
[1] = Coloring and bleaching behaviour; conditions: for bleaching: room temperature
[2] = Absorption maximum of naphthopyran imbibed into polymerizate; conditions: imbibed in poly[diethylene glycol bis(allyl carbonate)]; UV 365 nm lamp
Source text: (§1) The naphthopyran compounds of Examples 1-11 were imbibed into separate polymerizates of poly[diethylene glycol bis(allyl carbonate)]. On exposure to ultraviolet light from a 365 nm lamp, the imbibed polymer samples elicited a photochromic response which faded on removal of the UV light source.

[3] = Fade rate (T 1/2) of naphthopyran imbibed into polymerizate after UV activation; conditions: At Room Temperature; imbibed in poly[diethylene glycol bis(allyl carbonate)]; UV 365 nm lamp
Source text: as §1
^1. At Room Temperature

Row | SMILES | color change on exposure to near ultraviolet [1] | bleaching [1] | Absorption λ Max [2] [NM] | Fade Rate T 1/2 [3] [min]
1 | C1=CC(c2ccccc2)(c2ccccc2)Oc2c1ccc1ccccc21 [2,2-diphenyl-2H-naphtho[1,2-b] pyrin] | colors on exposure to near ultraviolet light at room temperature | does not bleach in a reasonable period of time |  | 
2 | C1=CC(c2ccccc2)(c2ccccc2)Oc2ccc3ccccc3c21 [3,3-diphenyl-3H-naphtho[2,1-b]pyran] | change color on exposure to the near ultraviolet | bleaches too rapidly for use in an ophthalmic lens |  | 
3 | CC(=O)Oc1cc2ccccc2c2c1OC(c1ccccc1)(c1ccccc1)C=C2 [Example 1, 5-acetoxy-3,3-diphenyl-3H-naphtho[2,1-b]pyran] |  |  | 455 | 1.35
4 | C1=CC(c2ccccc2)(c2ccccc2)Oc2c(Oc3ccccn3)cc3ccccc3c21 [Example 2, 5(2-pyridyloxy)-3,3-diphenyl-3H naphtho[2,1-b]pyran] |  |  | 440 | 1.57
5 | COc1ccc(C2(c3ccccc3)C=Cc3c(c(OC(C)=O)cc4ccccc34)O2)cc1 (stereo not drawn) [Example 3, 5-acetoxy-3-phenyl-3-p-methoxy phenyl-3H-naphtho[2,1-b]pyran] |  |  | 483 | 1.05
6 | COc1ccc(C2(c3ccccc3)C=Cc3c(c(OC(=O)c4ccccc4)cc4ccccc34)O2)cc1 (stereo not drawn) [Example 4, 5-benzoyloxy-3-phenyl-3-p-methoxy phenyl-3H-naphtho[2,1-b]pyran] |  |  | 483 | 3.5
7 | O=C(Oc1cc2ccccc2c2c1OC(c1ccccc1)(c1ccccc1)C=C2)c1ccccc1 [Example 5, 5-benzoyloxy-3,3-diphenyl-3H-naphtho[2,1-b]pyran] |  |  | 447 | 2.3
8 | CNC(=O)Oc1cc2ccccc2c2c1OC(c1ccccc1)(c1ccccc1)C=C2 [Example 6, 5-methylcarbamyloxy-3,3-diphenyl-3H-naphtho[2,1-b]pyran] |  |  | 446 | 1.67
9 | CC(=O)COc1cc2ccccc2c2c1OC(c1ccccc1)(c1ccccc1)C=C2 [Example 8, 5-(2-acetonyloxy)-3,3-diphenyl-3H-naphtho[2,1-b]pyran] |  |  | 434 | 1.6
10 | CC(=O)Oc1cc2ccccc2c2c1OC(c1ccc(C)cc1)(c1ccc(C)cc1)C=C2 [Example 9, 5-acetoxy-3,3-di(p-methylphenyl)-3H-naphtho[2,1-b]pyran] |  |  | 470 | 2.23
11 | O=C(CCl)Oc1cc2ccccc2c2c1OC(c1ccccc1)(c1ccccc1)C=C2 [Example 10, 5-chloroacetoxy-3,3-diphenyl-3H-naphtho[2,1-b]pyran] |  |  | 458 | 1.6
12 | Cc1ccc(C2(c3ccc(C)cc3)C=Cc3c(c(OC(=O)CCl)cc4ccccc34)O2)cc1 [Example 11, 5-chloroacetoxy-3,3-p-methylphenyl-3H-naphtho[2,1-b]pyran] |  |  | 476 | 1.75
